Assay results from patent publication US20210267996A1, “Compounds for inhibition of inflammation” (Children`s Medical Center Corporation, priority 2018, published 2021).

Tests used:
[1] = system: ASC specks; experiment: ASC speck formation in LPS-primed THP-1 cells plus nigericin; assay type: cell-based, human; conditions: for ASC speck formation: 1 hr before nigericin
Experimental: Immunostaining and confocal microscopy: cells grown on coverslips were fixed for 15 min with 4% paraformaldehyde in PBS, permeabilized for 5 min in 0.1% Triton X-100 in PBS and blocked using 5% BSA for 1 hr. Then, cells were stained with the indicated primary antibodies followed by incubation with fluorescent-conjugated secondary antibodies (Jackson ImmunoResearch). Nuclei were counterstained with DAPI (4,6-diamidino-2-phenylindole) (Sigma-Aldrich). Slides were mounted using Aqua-Poly/Mount (Dako). Images were captured using a laser scanning confocal microscope (Olympus Fluoview FV1000 Confocal System) with a 63× water immersion objective and Olympus Fluoview software (Olympus). All confocal images are representative of three independent experiments.
Nigericin activates the assembly of the NLRP3 canonical inflammasome using an adaptor called apoptosis-associated speck-like protein containing a caspase recruitment domain (ASC), which can be visualized in immunofluorescent microscopy as specks. When LPS-primed THP-1 cells were treated with nigericin in the absence of inhibitors, ASC specks were detected in 30% of cells (FIG. 36). As expected, speck formation was not inhibited by z-VAD-fmk, since caspase activation occurs downstream of inflammasome assembly.
(§1) Cell death was determined by CytoTox96 assay. […] Cell death was determined by CytoTox96 assay. […] Shown are immunoblots of whole cell lysates harvested 0.5 hr later. […] Representative images of ASC specks (arrowheads) and mean±s.d. percent of cells with ASC specks analyzed 20 min later (FIG. 47). Whole cell lysates (WCL) and culture supernatants (Sup) were harvested 30 min after adding nigericin and immunoblotted with the indicated antibodies (FIG. 50). Caspase-1 activity was assayed 30 min after adding nigericin using a cell-permeable fluorescence dye FAM-YVAD-FMK (FIG. 52). […] Representative images of ASC specks (arrowheads) and mean±s.d. percent of cells with ASC specks analyzed 20 min later (FIGS. 48 and 49). Whole cell lysates (WCL) and culture supernatants (Sup), harvested 30 min after adding nigericin, were analyzed by immunoblot (FIG. 51). […] The Figures show representative confocal microscopy images and quantification of proportion of cells with GSDMD membrane staining and pyroptotic bubbles. Arrows indicate GSDMD staining of pyroptotic bubbles. […] FIGS. 57 and 58, dose response curve of the effect of Bay 11-7082 on caspase-1 (FIG. 57) and caspase-11 (FIG. 58) activity against a fluorescent peptide substrate. […] (FIG. 60). FIGS. 61 and 62 show dose response curve of the effect of Bay 11-7082 on liposome leakage induced by 0.3 μM human GSDMD-3C (FIG. 61) or mouse GSDMA3-3C (FIG. 62) plus 0.15 μM 3C protease. […] 2-fold dilutions of Bay 11-7082 from 5-40 μM were used. Graphs show the mean±s.d; data are representative of three independent experiments. *P<0.05, **P<0.01.

[2] = system: NF-κB activation; experiment: Inflammasome priming by LPS in THP-1 cells (immunoblot); assay type: cell-based, human; conditions: for NF-κB activation / pro-IL-1β induction: 30 μM, 1 hr before LPS; for NLRP3 induction: 1 hour before LPS
Experimental: Immunoblot analysis: cell extracts were prepared using RIPA buffer (50 mM Tris-HCl pH 7.4, 150 mM NaCl, 1 mM EDTA, 1% Triton X-100, 0.1% SDS, 0.5% deoxycholate) supplemented with a complete protease inhibitor cocktail (Roche) and a PhosSTOP phosphatase inhibitor cocktail (Roche). Samples were subjected to SDS-PAGE and the resolved proteins were then transferred to a PVDF membrane (Millipore). Immunoblots were probed with indicated antibodies and visualized using a SuperSignal West Pico chemiluminescence ECL kit (Pierce).
Because both disulfiram and Bay 11-7082 non-specifically modify reactive Cys, their effects on the steps leading to pyroptosis and inflammatory caspase activation were next analyzed. Some of the genes that participate in the canonical inflammasome pathway are not expressed in unstimulated cells and their expression needs to be induced, often by binding to cell surface sensors of pathogen and danger-associated molecular patterns, such as Toll-like receptors (TLR), in a process called priming. Bay 11-7082 is known to inhibit NF-κB activation, a key transcription factor in priming. The effect of disulfiram and Bay 11-7082 on priming were first examined (FIG. 45). NF-κB activation was assessed by examining IκBα phosphorylation and degradation and RelA (p65) phosphorylation. Induction of pro-IL-1β was assessed by immunoblot for pro-IL1β protein. In the absence of disulfiram or Bay 11-7082, phosphorylation of p65 was first detected 30 min after adding LPS and persisted for 4 hrs, phosphorylation and reduced IκBα. were detected 1 hr after adding LPS, and increased pro-IL-1β was detected 4 hrs after adding LPS. […] Thus, disulfiram and Bay 11-7082 both inhibit priming.
as §1, with “substrate. FIGS. 59 and 60 show MS/MS spectra of the Cys191-containing GSDMD peptide” for “substrate.”
To elucidate the cellular mechanism of pyroptosis inhibition by disulfiram, its effects on the entire inflammasome activation pathway were analyzed. Some of the genes that participate in the canonical inflammasome pathway are not expressed in unstimulated cells and their expression needs to be induced, often by binding to cell surface sensors of pathogen and danger-associated molecular patterns, such as Toll-like receptors (TLR), in a process called priming. […]

Structure (SMILES)	ASC puncta ([1]; 1 μM with copper gluconate)	cells with ASC specks ([1]; 30 μM, 1 hour before nigericin)	ASC speck formation ([1]; 30 μM)	NF-κB activation [2]	pro-IL-1β induction ([2]; listed as disulfiram)	NLRP3 induction [2]	pro-IL-1β induction [2]
CCN(CC)C(=S)SSC(=S)N(CC)CC [C-23, Tetraethylthiuram disulfide]	reduced ASC puncta	about 20 % of cells	inhibited ASC speck formation, but not completely	inhibited NF-κB activation	blocked pro-IL-1β induction	blocked	–
Cc1ccc(S(=O)(=O)/C=C/C#N)cc1 [Bay 11-7082]	–	–	inhibited ASC speck formation, but not completely	had a stronger effect	–	blocked	blocked pro-IL-1β induction
